What was measured:
Assay in all cases: Competitive isoTOP-ABPP, cell lysates
Type in all cases: binding
[1] = biological target: T1, ACAT1 C119 (P24752) (Homo sapiens, UniProt P24752); settings: for isoTOP-ABPP ratio P24752_C119: 500 μM, invitro
T1 sequence (P24752 34-427): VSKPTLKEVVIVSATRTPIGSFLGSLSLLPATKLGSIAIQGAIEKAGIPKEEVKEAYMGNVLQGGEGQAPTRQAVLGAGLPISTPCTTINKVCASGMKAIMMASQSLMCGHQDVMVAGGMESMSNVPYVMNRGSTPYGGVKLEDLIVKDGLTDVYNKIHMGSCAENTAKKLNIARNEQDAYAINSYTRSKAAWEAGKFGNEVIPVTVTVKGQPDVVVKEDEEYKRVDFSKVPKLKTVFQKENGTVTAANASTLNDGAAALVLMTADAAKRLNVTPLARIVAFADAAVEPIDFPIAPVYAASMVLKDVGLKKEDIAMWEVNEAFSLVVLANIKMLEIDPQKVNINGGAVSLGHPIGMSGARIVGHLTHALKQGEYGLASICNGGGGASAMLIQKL

[2] = biological target: T2, PCK2 C306 (Q16822) (Homo sapiens, UniProt Q16822); settings: 500 μM, invitro
T2 sequence (Q16822 33-640): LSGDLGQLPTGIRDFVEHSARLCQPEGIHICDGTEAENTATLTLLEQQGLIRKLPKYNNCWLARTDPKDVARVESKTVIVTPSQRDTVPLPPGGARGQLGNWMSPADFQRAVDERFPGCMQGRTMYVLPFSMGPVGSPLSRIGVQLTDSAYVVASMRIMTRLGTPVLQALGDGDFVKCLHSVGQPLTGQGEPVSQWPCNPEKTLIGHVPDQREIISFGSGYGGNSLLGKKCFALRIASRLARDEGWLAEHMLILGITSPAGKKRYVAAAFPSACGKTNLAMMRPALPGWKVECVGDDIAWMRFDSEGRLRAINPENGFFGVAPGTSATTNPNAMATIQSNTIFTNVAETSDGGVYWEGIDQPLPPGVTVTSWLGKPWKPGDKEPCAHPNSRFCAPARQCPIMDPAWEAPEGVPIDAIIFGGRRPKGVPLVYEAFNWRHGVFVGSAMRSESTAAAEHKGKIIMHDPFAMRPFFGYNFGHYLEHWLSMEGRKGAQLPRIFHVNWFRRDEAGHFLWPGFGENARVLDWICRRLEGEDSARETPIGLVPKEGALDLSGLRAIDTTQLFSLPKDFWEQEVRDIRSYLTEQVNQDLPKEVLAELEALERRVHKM

[3] = biological target: PRMT1 C109 (Q99873) (Homo sapiens, UniProt Q99873); settings: for isoTOP-ABPP ratio, Q99873_C109: 500 μM, invitro
Chain of PRMT1 C109 (Q99873) (Q99873 whole entry): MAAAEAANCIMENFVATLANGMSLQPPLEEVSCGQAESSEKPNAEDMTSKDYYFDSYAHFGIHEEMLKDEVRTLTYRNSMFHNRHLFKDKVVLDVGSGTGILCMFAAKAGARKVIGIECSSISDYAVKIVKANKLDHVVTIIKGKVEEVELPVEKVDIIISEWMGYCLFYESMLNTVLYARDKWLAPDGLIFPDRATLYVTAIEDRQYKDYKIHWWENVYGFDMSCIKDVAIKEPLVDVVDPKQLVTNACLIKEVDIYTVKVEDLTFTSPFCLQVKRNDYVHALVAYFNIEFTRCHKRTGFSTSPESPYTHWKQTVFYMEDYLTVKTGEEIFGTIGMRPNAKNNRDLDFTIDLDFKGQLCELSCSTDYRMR

[4] = biological target: XPO1 C528 (O14980) (Homo sapiens, UniProt O14980); settings: for isoTOP-ABPP ratio O14980_C528: 500 μM, invitro; for isoTOP-ABPP ratio (reactivity profile), O14980_C528: 500 μm in-vitro ramos
Chain of XPO1 C528 (O14980) (O14980 whole entry): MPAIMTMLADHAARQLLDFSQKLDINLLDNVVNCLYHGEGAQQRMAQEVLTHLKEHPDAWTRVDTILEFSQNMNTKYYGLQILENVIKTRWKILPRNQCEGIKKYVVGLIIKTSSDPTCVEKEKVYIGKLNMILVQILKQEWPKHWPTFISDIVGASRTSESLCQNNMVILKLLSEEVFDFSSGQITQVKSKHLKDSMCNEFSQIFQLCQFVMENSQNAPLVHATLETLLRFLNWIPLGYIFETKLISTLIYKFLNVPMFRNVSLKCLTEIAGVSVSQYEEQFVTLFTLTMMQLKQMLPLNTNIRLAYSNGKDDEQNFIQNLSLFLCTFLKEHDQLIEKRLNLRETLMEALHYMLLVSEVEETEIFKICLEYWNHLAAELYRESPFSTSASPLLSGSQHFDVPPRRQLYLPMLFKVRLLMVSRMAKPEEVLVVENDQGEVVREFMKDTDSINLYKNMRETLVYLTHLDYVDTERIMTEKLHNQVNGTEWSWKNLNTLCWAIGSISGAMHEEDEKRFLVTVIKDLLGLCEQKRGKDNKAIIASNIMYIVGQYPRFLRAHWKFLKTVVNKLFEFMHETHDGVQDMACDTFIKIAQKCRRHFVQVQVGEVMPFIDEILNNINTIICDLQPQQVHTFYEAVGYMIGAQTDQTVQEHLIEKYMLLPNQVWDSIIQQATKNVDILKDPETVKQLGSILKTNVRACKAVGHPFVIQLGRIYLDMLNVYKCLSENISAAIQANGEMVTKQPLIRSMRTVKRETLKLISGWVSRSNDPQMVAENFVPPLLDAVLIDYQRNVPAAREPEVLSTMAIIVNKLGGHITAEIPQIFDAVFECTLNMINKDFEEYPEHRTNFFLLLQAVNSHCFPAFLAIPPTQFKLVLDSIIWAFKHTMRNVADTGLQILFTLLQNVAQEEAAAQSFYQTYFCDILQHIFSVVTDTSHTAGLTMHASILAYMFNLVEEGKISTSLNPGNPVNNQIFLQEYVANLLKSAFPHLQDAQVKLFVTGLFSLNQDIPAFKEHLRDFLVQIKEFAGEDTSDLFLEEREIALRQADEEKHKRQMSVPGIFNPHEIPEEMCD

[5] = biological target: T3, ADA C75 (P00813) (Homo sapiens, UniProt P00813); settings: for isoTOP-ABPP ratio, P00813_C75: 500 μM, invitro, ramos; for isoTOP-ABPP ratio (reactivity profile), P00813_C75: 500 μm in-vitro ramos
T3 sequence (P00813 1-363): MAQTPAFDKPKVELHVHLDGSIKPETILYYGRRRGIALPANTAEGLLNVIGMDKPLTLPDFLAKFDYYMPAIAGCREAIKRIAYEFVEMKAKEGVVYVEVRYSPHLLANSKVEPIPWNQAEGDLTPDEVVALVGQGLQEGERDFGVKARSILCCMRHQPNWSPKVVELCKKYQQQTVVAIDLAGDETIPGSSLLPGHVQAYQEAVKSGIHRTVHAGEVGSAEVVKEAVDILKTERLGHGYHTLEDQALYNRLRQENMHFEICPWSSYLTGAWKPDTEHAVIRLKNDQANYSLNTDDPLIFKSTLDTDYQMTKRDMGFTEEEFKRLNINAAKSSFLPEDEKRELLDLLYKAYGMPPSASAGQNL

isoTOP-ABPP ratio P24752_C119 [1]; 231 | isoTOP-ABPP ratio P24752_C119 ([1]; ramos) | isoTOP-ABPP ratio, Q16822_C306 [2]; 231 | isoTOP-ABPP ratio, Q16822_C306 ([2]; ramos) | isoTOP-ABPP ratio, Q99873_C109 [3]; 231 | isoTOP-ABPP ratio, Q99873_C109 ([3]; ramos) | isoTOP-ABPP ratio O14980_C528 [4]; 231 | isoTOP-ABPP ratio, P00813_C75 [5] | blockade of IA-alkyne labeling of C109 of PRMT1 ([3]; competitive isoTOP-ABPP) | isoTOP-ABPP ratio O14980_C528 ([4]; ramos) | isoTOP-ABPP ratio (reactivity profile), P24752_C119 ([1]; 500 μm in-vitro ramos) | isoTOP-ABPP ratio (reactivity profile), Q99873_C109 ([3]; 500 μm in-vitro ramos) | isoTOP-ABPP ratio (reactivity profile), O14980_C528 [4] | isoTOP-ABPP ratio (reactivity profile), P00813_C75 [5] | Compound | isoTOP-ABPP ratio (reactivity profile), P24752_C119 ([1]; 500 μm in-vitro ramos_231) | isoTOP-ABPP ratio (reactivity profile), Q99873_C109 ([3]; 500 μm in-vitro ramos_231)
1.5 | 1.4 | 1.9 | 1.1 | 2.3 | 1.3 | 0.8 | 1.0 |  |  |  |  |  |  | O=C(CCl)N1CCN(S(=O)(=O)c2ccccc2F)CC1 [compound 10] |  | 
1.2 | 0.9 | 3.2 | 1.2 | 20.0 | 20.0 | 1.0 | 7.5 | blocking IA-alkyne labeling | 0.7 |  |  |  |  | Cn1cc(S(=O)(=O)N2CCOCC2)cc1C(=O)NC(=O)CCl [compound 11] |  | 
1.0 | 0.7 | 1.5 | 0.7 | 1.4 | 1.3 | 1.1 | 0.7 |  |  |  |  |  |  | O=C(CCl)NC(=O)NC12CC3CC(CC(C3)C1)C2 [compound 12] |  | 
1.0 |  |  |  | 0.9 |  | 0.8 |  |  |  | 1.2 | 1.2 | 1.0 | 1.1 | C=CC(=O)N(Cc1cccnc1)c1ccc(Oc2ccccc2)c(C(F)(F)F)c1 [compound 15] |  | 
 |  |  |  |  |  |  |  |  |  | 1.3 | 1.0 | 20.0 | 1.2 | CC(Br)C(=O)Nc1cc(C(F)(F)F)cc(C(F)(F)F)c1 (stereo not drawn) [compound 24] |  | 

Compound | isoTOP-ABPP ratio P24752_C119 [1]; 231 | isoTOP-ABPP ratio P24752_C119 ([1]; ramos) | isoTOP-ABPP ratio, Q16822_C306 [2]; 231 | isoTOP-ABPP ratio, Q16822_C306 ([2]; ramos) | isoTOP-ABPP ratio, Q99873_C109 [3]; 231 | isoTOP-ABPP ratio, Q99873_C109 ([3]; ramos) | isoTOP-ABPP ratio O14980_C528 [4]; 231 | isoTOP-ABPP ratio, P00813_C75 [5] | blockade of IA-alkyne labeling of C109 of PRMT1 ([3]; competitive isoTOP-ABPP) | isoTOP-ABPP ratio O14980_C528 ([4]; ramos) | isoTOP-ABPP ratio (reactivity profile), P24752_C119 ([1]; 500 μm in-vitro ramos) | isoTOP-ABPP ratio (reactivity profile), Q99873_C109 ([3]; 500 μm in-vitro ramos) | isoTOP-ABPP ratio (reactivity profile), O14980_C528 [4] | isoTOP-ABPP ratio (reactivity profile), P00813_C75 [5] | isoTOP-ABPP ratio (reactivity profile), P24752_C119 ([1]; 500 μm in-vitro ramos_231) | isoTOP-ABPP ratio (reactivity profile), Q99873_C109 ([3]; 500 μm in-vitro ramos_231)
O=C(CCl)N1CCOCC1 [compound 22] |  |  |  |  |  |  |  |  |  |  | 0.8 | 1.0 |  | 1.3 | 1.0 | 1.0

Source: patent US10670605B2, “Cysteine reactive probes and uses thereof” (The Scripps Research Institute, priority 2015, dated 2020)
